Values quoted from earlier work as cited in patent publication US10232018B2, “ACTH for treatment of acute respiratory distress syndrome” (MALLINCKRODT ARD IP LIMITED, priority 2013, dated 2019).

Columns and labels:
[1] = tested on: adrenal stimulation
[2] = Baumann and Felber, 1976

Row | Substance | partial agonist activity in adrenal stimulation assays in comparison to ACTH1-24 as control [1] | duration of action compared with 1-24 [2]
1 | ACTH1-23: ACTH fragment 1-23, partial agonist in Hofmann et al. (1970) (SYSMEHFRWGKPVGKKRRPVKVY; Corticotropin; UniProt P01189 138-160, looked up, fragment) | 91% | 
2 | human 1-39: human ACTH 1-39 (SYSMEHFRWGKPVGKKRRPVKVYPNGAEDESAEAFPLEF; Corticotropin; UniProt P01189 138-176, looked up) |  | longer duration of action
